Measured values taken from patent publication US20080015147A1, “Method for inhibiting neuronal cell death” (priority 2006, published 2008).

What was measured:
[1] = test system: N38 cells immortalized mouse hypothalamic cell line; assay: Cell morphology analysis (small round necrotic cells); assay type: cell-based; details: for number of small round (necrotic) cells, vehicle vs TCAP-treated: 48 hrs; for number of rounded cells relative to vehicle: 72 hrs
Experimental: The effect of TCAP-1 on cell morphology was conducted using the N38 cells immortalized mouse hypothalamic cell line(Belsham et al, 2004). Cells were grown in six-well culture plate with 2 ml of Dulbeco's Modified Eagle Medium (DMEM) with high glucose, […], 25 mM HEPES buffer, pyridoxine hydrochloride in the absence of sodium pyruvate, 5 ml penicillin with 10% fetal bovine serum (FBS) at pH 7.4 (all from Gibco-Invitrogen, Burlington, Canada).
At 24 and 48 hrs, the medium was replaced with medium buffered at pH 6.8, 7.4, 8.0 or 8.4. Half of the cell groups received (2×10^−7 M) TCAP-1, whereas the other half received phosphate buffered saline (PBS) pH 7.4 containing 8 g NaCl, 0.2 g KCl, 1.4 g Na2HPO4, 0.2 g KH2PO4 in. 800 mL ddH2O. For all groups, 4 replicates were run. Digital pictures were taken at 24, 48 and 72 hrs using an Olympus IX&1 inverted microscope at a magnification of 200× and analyzed using LabWorks 4.0 Image Acquisition and Analysis software (UltraViolet Products Ltd).

N38 cells [2] = assay: Fluorescent microscopy of necrosis and apoptosis markers; assay type: cell-based, mouse; details: 48 hrs
Experimental: N38 cells were cultured on poly-D-Lysine treated coverslips (VWR, Mississauga) in each of the four pH condition, and cells were washed twice with PBS, each fluorochrome was added to each well: 5 μl Fluorescein (FITC)-Annexin V in Tris EDTA buffer containing 0.1% BSA (Bovine serum albumin) and 0.1% NaN3, pH 7.5, 5 μl rhodamine EtD-III 200 μM in PBS and 5 μl 4′,6-Diamidino-2-phenylindole (DAPI) Hoechst 33342 5 μg/mL in PBS (Biotium, Inc. Hayward). The samples were incubated in the dark for 15 min, then washed before being placed on slides. The cells were viewed under a Leica DM4500 inverted fluorescent microscope and digitally analyzed using OpenLab software.
Annexin V labelled with fluorescein (FITC) was used to identify apoptotic cells in green. Ethidium homodimer III (EtD-III) is a positively charged nucleic acid probe, which is impermeable to live or apoptotic cells but stains necrotic cells with red fluorescence (rhodamine) and Hoechst 3342 (4′,6-Diamidino-2-phenylindole) (DAPI) emits bright blue fluorescence upon binding to DNA in living cells.

superoxide radical = assay: Superoxide radical measured by conversion of a soluble tetrazolium salt; assay type: cell-based, mouse; details: 48 hours
Experimental: The presence of the superoxide radical was measured indirectly by the conversion of a soluble tetrazolium salt in cells after 48 hours (FIG. 8A).

catalase = assay: Catalase assay on pH treated cells; assay type: cell-based, mouse
Experimental: A catalase assay was performed on the pH treated cells in order to determine whether TCAP-1 was conferring survivability to the cells via upregulation of catalase and thus increasing H2O 2 breakdown into H2O and O2 (FIG. 9B). […] Bovine liver was also assayed as a positive control.

N38 cells [3] = assay: Cell viability by Trypan Blue uptake; assay type: cell-based, mouse; details: 48 hrs
Experimental: The proportion of viable cells in the samples was determined by measuring Trypan Blue uptake. At 48 hrs, the cells from the four pH treatments were suspended using 1 ml of Trypsin EDTA, centrifuged at 1600 RPM for 4 min and resuspended in 1 ml of BSS (Hank's Balanced Salt Solution) (Sigma, St. Louis). An aliquot of 0.5 ml of 0.04% Trypan Blue solution was transferred to a 1.5 ml tube, […] of BSS was added to 0.2 ml of the cell suspension; the samples were mixed thoroughly and the cell suspension-Trypan Blue mixture was allowed to stand for 10 minutes and then counted on a hemocytometer. Separate counts were kept for both viable and non viable cells.

caspase 8 = assay: Caspase 8 colorimetric assay; assay type: cell-based, mouse
Experimental: Caspase 8 and 3 colorimetric assays were performed on the N38 cells at all pH conditions. The assay was based on the detection of the chromophore pNA after cleavage from the labeled substrate IETD-pNA and DEVD-pNA for caspase 8 and 3, respectively. Comparison of the pNA absorbance from the suspected apoptotic sample was compared to the uninduced neutral pH sample. Caspase 8 and 3 were analysed using the Caspase-3 Colorimetric Activity Assay (Chemicon, Temecula USA) and Caspase-8 Colorimetric Activity Assay (Chemicon, Temecula USA). The cells from each pH treatment described previously at 24 and 48 hrs were removed using a cell scraper and centrifuged at 1500 rpm for 10 minutes. The cells were resuspended in 350 μl of chilled cell lysis buffer containing 500 μl PBS, 5 μl 1% Triton ×100 (Sigma, St. Louis), 25 μl proteinase inhibitor cocktail set III (VWR, Mississauga), 0.5 μM dithiothreitol (DTT) (Sigma, St. Louis) and 2.5 μl phenylmethylsulphonylfluoride (PMSF) diluted in 1 mL of methanol (EM Science, Gibbstown), then incubated on ice for 10 min and centrifuged for 5 minutes at 10,000 rpm. The supernatant, consisting of cytosolic extracts, was transferred to a new tube and a bicinchoninic acid (BCA) protein assay (Pierce, Rockford) was conducted to determine total protein concentration. The absorbance of each sample was measured on a SPECTRAmax Microplate spectrophotometer at 405 nm after an incubation period of 2 hours at 37° C. Changes in caspase 3 activity were determined by comparing the absorbance reading from the induced sample with the level of the uninduced control. Background readings from the buffer were subtracted from the reading of both the induced (pH 6.8, 8.0, 8.4) and uninduced (pH 7.4) samples before calculating changes in caspase 3 activity. The same was done for the detection of caspase 8. As a control, N38 cells were cultured with pH 7.4 DMEM and incubated for 4 days, apoptosis was then induced using 10 μM/ml etoposide and lysed according to the above protocol and used a control for all subsequent caspase 3 detection. All assays were performed with 4 replications.

[4] = test system: cells treated with 50 μM H2O2; assay: H2O2 toxicity MTT assay; assay type: cell-based, mouse

teneurin C-terminus associated peptide [TCAP-1]
number of small round (necrotic) cells, vehicle vs TCAP-treated ([1]; pH 6.8, p<0.05): significant increase in the number of small round cell types (necrotic cells) in the vehicle-treated cultures | observable morphological changes ([1]; pH 7.4, TCAP-1 2×10^−7 M): did not induce any observable morphological changes | number of small round (necrotic) cells, vehicle vs TCAP-treated ([1]; pH 8.0, p<0.001): significant increase in the number of small round cell types (necrotic cells) in the vehicle-treated cultures | number of rounded cells relative to vehicle ([1]; pH 8.0, p<0.001): significantly decreased the number of rounded cells | number of small round (necrotic) cells, vehicle vs TCAP-treated ([1]; pH 8.4, p<0.001): significant increase in the number of small round cell types (necrotic cells) in the vehicle-treated cultures | number of rounded cells relative to vehicle ([1]; pH 8.4, p<0.001): significantly decreased the number of rounded cells | number of rhodamine-fluorescing (necrotic) cells (N38 cells [2]; pH 6.8): decreased the number of rhodamine-fluorescing cells | number of rhodamine-fluorescing (necrotic) cells (N38 cells [2]; pH 6.8, listed as TCAP): significantly decreased the amount of necrotic cells | number of rhodamine-fluorescing (necrotic) cells (N38 cells [2]; pH 8.0): decreased the number of rhodamine-fluorescing cells | number of rhodamine-fluorescing (necrotic) cells (N38 cells [2]; pH 8.0, listed as TCAP): significantly decreased the amount of necrotic cells | number of rhodamine-fluorescing (necrotic) cells (N38 cells [2]; pH 8.4): decreased the number of rhodamine-fluorescing cells | number of rhodamine-fluorescing (necrotic) cells (N38 cells [2]; pH 8.4, listed as TCAP): significantly decreased the amount of necrotic cells | decrease in absorbance of the substrate (proportional to superoxide radical activity) (superoxide radical; pH 8.0, p<0.05): 40% | decrease in absorbance of the substrate (proportional to superoxide radical activity) (superoxide radical; pH 8.4, p<0.01): 60% | catalase levels vs vehicle (catalase; pH 6.8): no significant effects | catalase levels vs vehicle (catalase; pH 7.4): no significant effects | catalase levels vs vehicle (catalase; pH 8.0, p<0.01): significant TCAP-1 effect | catalase levels vs vehicle (catalase; pH 8.4, p<0.001): significantly increased catalase levels | cell viability by trypan blue uptake (N38 cells [3]; pH 6.8): significant decrease in the number of cells that took up the trypan blue stain | cell viability by trypan blue uptake (N38 cells [3]; pH 6.8, listed as TCAP): increased the number of viable cells | cell viability by trypan blue uptake (N38 cells [3]; pH 8.0): significant decrease in the number of cells that took up the trypan blue stain | cell viability by trypan blue uptake (N38 cells [3]; pH 8.0, listed as TCAP): increased the number of viable cells | cell viability by trypan blue uptake (N38 cells [3]; pH 8.4): significant decrease in the number of cells that took up the trypan blue stain | cell viability by trypan blue uptake (N38 cells [3]; pH 8.4, listed as TCAP): increased the number of viable cells | relative level of caspase 8 activity, of the etoposide-induced increase (caspase 8; pH 7.4): about 70% | caspase 8 activity vs vehicle (caspase 8; pH 7.4, P<0.001): increased caspase 8 activity | caspase 8 activity vs vehicle (caspase 8; pH 8.0): no significant differences in caspase 8 and 3 activity | caspase 8 activity vs vehicle (caspase 8; pH 8.4): no significant differences in caspase 8 and 3 activity | mitochondrial (MTT) activity vs vehicle ([4]; 0 hours): no effect | MTT activity relative to vehicle ([4]; 6 to 48 hours): significant increase in MTT activity | mitochondrial (MTT) activity vs vehicle ([4]; 6 hours, p<0.001): significantly increased mitochondrial activity | mitochondrial (MTT) activity vs vehicle ([4]; 12 hours, p<0.001): significantly increased mitochondrial activity | mitochondrial (MTT) activity vs vehicle ([4]; 24 hours, p<0.05): less significant effect | mitochondrial (MTT) activity vs vehicle ([4]; 48 hours, p<0.001): significantly increased mitochondrial activity
